Literature values as cited in US9301957B2, “Immediate release 4-methyl-3-4[[4-(3-pyridinyl)-2-pyrimidinyl]amino]-N-[5-(4-methyl-1H-imidazol-1-YL)-3-(trifluoromethyl)phenyl] benzamide formulation” (Novartis AG, priority 2011, dated 2016).

Columns and labels:
[1] = unit dosage given shortly after food, compared to a fasted state
[2] = nilotinib and its salts

Cc1cn(-c2cc(NC(=O)c3ccc(C)c(Nc4nccc(-c5cccnc5)n4)c3)cc(C(F)(F)F)c2)cn1 [nilotinib, 4-Methyl-3-[[4-(3-pyridinyl)-2-pyrimidinyl]amino]-N-[5-(4-methyl-1H-imidazol-1-yl)-3-(trifluoromethyl)phenyl]benzamide]
systemic exposure, as reflected by AUC and Cmax [1]: increases markedly | water solubility [2]: poorly water soluble
